The text below walks through data of US9930890B2 (priority 2010, dated 2018).

One series concerns Phytophthora infestans. Type of series: in vivo. Particulars: tomato plants, protective spray, active ingredient concentration 100 ppm, evaluation 7 days after inoculation; 0% = control, 100% = no infection.
A further series has as its system Plasmopara viticola. Nature of the series: Plasmopara test (grapevine)/protective. Type of series: in vivo. Particulars: grapevine young plants, protective spray, active ingredient concentration 10 ppm, evaluation 6 days after inoculation; 0% = control, 100% = no infection. On the procedure: Plasmopara Test (Grapevine)/Protective
To produce an appropriate active ingredient formulation, 1 part by weight of active ingredient is mixed with the specified amounts of solvent and emulsifier, and the concentrate is diluted with water to the desired concentration.
To test for protective efficacy, young plants are sprayed with the active ingredient formulation at the stated application rate. After the spray coating has dried on, the plants are inoculated with an aqueous spore suspension of Plasmopara viticola and then remain in an incubation cabin at approx. 20° C. and 100% relative air humidity for 1 day. Subsequently, the plants are placed in a greenhouse at approx. 21° C. and approx. 90% air humidity for 4 days. The plants are then moistened and placed in an incubation cabin for 1 day.
Evaluation follows 6 days after the inoculation. 0% means an efficacy which corresponds to that of the control, whereas an efficacy of 100% means that no infection is observed.
In this test, the following inventive compounds show, at an active ingredient concentration of 10 ppm, an efficacy of 70% or more: […]

For series [1] the following is noted: for logp [a]: pH 2.7; for logp [b]: pH 7.8.

With `CCS(=O)(=O)Oc1cccc(C2CC(c3csc(C4CCN(C(=O)Cn5nc(C(F)F)cc5C(F)F)CC4)n3)=NO2)c1` (stereo not shown) [I-77], in the series with Phytophthora infestans, the Eff. % was found to be 98%. In the series with Plasmopara viticola, this molecule had an Eff. % of 93%. Also, in series [1], the “logp [a]” value was 3.08[a], and the “logp [b]” value is 2.99[b].
Turning to `Cc1cc(C(F)(F)F)nn1CC(=O)N1CCC(c2nc(C3=NOC(c4c(Cl)cccc4OCC#N)C3)cs2)CC1` (stereo not shown) [I-78], the Eff. % in the series with Phytophthora infestans was found to be 80%; in the series on Plasmopara viticola it was 97%. Besides, the “logp [a]” value in series [1] was 3.31[a],. Also, in series [1], the “logp [b]” value was 3.23[b].
As to `N#CCOc1ccc(C2CC(c3csc(C4CCN(C(=O)Cn5nc(C(F)F)cc5C(F)F)CC4)n3)=NO2)cc1` (stereo not shown) [I-81], the values for the Eff. % in the series on Phytophthora infestans and in the series on Plasmopara viticola were 100% and 99%, respectively. Also, the “logp [a]” value in series [1] is 2.89[a],. For the same molecule, in series [1], the “logp [b]” value was 2.8[b].
Consider `C/C=C/C(=O)Oc1ccccc1C1CC(c2csc(C3CCN(C(=O)Cn4nc(C(F)F)cc4C(F)F)CC3)n2)=NO1` (stereo not shown) [I-82], for which the Eff. % in the series on Phytophthora infestans is recorded as 70%. This molecule displayed an Eff. % in the series with Plasmopara viticola of 94%. For the same molecule, in series [1], the “logp [a]” value is 3.46[a], and the “logp [b]” value is 3.37[b].
On to `O=C(Cn1nc(C(F)F)cc1C(F)F)N1CCC(c2nc(C3=NOC(c4cccc(OS(=O)(=O)C5CC5)c4)C3)cs2)CC1` (stereo not shown) [I-83], for which, in the series with Phytophthora infestans, the Eff. % came to 98%. In addition, the Eff. % in the series with Plasmopara viticola was determined as 94%. Moreover, in series [1], the “logp [a]” value is 3.17[a], and the “logp [b]” value is 3.07[b].
Regarding `O=C(Cn1nc(C(F)F)cc1C(F)F)N1CCC(c2nc(C3=NOC(c4cc(F)ccc4OS(=O)(=O)C4CC4)C3)cs2)CC1` (stereo not shown) [I-84], the Eff. % in the series with Phytophthora infestans stood at 90%. Also, the Eff. % in the series on Plasmopara viticola is 100%. For the same molecule, in series [1], the “logp [a]” value is 3.32[a], and the “logp [b]” value was 3.35[b].
The matching figures for `CS(=O)(=O)Oc1c(F)cccc1C1CC(c2csc(C3CCN(C(=O)Cn4nc(C(F)F)cc4C(F)F)CC3)n2)=NO1` (stereo not shown) [I-85]: 75%, 100%, 2.97[a], and 2.91[b].
The matching figures for `Cc1cc(C(F)(F)F)nn1CC(=O)N1CCC(c2nc(C3=NOC(c4c(F)cccc4OCC#N)C3)cs2)CC1` (stereo not shown) [I-86]: 75%, 99%, 3.05[a], and 2.94[b].
The matching figures for `N#CCCn1cccc1C1CC(c2csc(C3CCN(C(=O)Cn4nc(C(F)F)cc4C(F)F)CC3)n2)=NO1` (stereo not shown) [I-87]: 80%, 95%, 2.71[a], and 2.64[b].
`CS(=O)(=O)Oc1cccc(Cl)c1C1CC(c2csc(C3CCN(C(=O)Cn4nc(C(F)F)cc4C(F)F)CC3)n2)=NO1` (stereo not shown) [I-102] registered an Eff. % in the series on Phytophthora infestans of 75%. This molecule displayed an Eff. % in the series with Plasmopara viticola of 100%. Moreover, in series [1], the “logp [a]” value was 3.2[a], and the “logp [b]” value was 3.09[b].
As to `Cc1cc(C(F)(F)F)nn1CC(=O)N1CCC(c2nc(C3=NOC(c4c(Cl)cccc4OS(C)(=O)=O)C3)cs2)CC1` (stereo not shown) [I-103], the results for the Eff. % in the series with Phytophthora infestans and with Plasmopara viticola were 80% and 100%, respectively. The “logp [a]” value in series [1] is 3.28[a],. The “logp [b]” value in series [1] is 3.2[b].
The matching figures for `O=CNc1ccccc1C1CC(c2csc(C3CCN(C(=O)Cn4nc(C(F)F)cc4C(F)F)CC3)n2)=NO1` (stereo not shown) [I-108]: 100%, 93%, 2.42[a], and 2.32[b].
As for `CSCOc1ccccc1C1CC(c2csc(C3CCN(C(=O)Cn4nc(C(F)F)cc4C(F)F)CC3)n2)=NO1` (stereo not shown) [I-112], the Eff. % in the series on Phytophthora infestans was found to be 94%. Also, the Eff. % in the series on Plasmopara viticola was 100%. Further, in series [1], the “logp [a]” value was 3.49[a], and the “logp [b]” value is 3.56[b].
On to `N#CCOc1cccc(F)c1C1CC(c2csc(C3CCN(C(=O)Cn4nc(C(F)F)cc4C(F)F)CC3)n2)=NO1` (stereo not shown) [I-113], for which the Eff. % worked out at 85% in the series with Phytophthora infestans and 100% with Plasmopara viticola. Besides, in series [1], the “logp [a]” value is 2.87[a],. Besides, the “logp [b]” value in series [1] is 2.88[b].
Regarding `Cc1cc(C(F)(F)F)nn1CC(=O)N1CCC(c2nc(C3=NOC(c4cccc(F)c4OS(=O)(=O)C4CC4)C3)cs2)CC1` (stereo not shown) [I-114], the figures for the Eff. % in the series with Phytophthora infestans and in the series with Plasmopara viticola were 94% and 100%, respectively. Moreover, the “logp [a]” value in series [1] was 3.43[a],. The “logp [b]” value in series [1] is 3.42[b].
For the molecule `O=C(Cn1nc(C(F)F)cc1C(F)F)N1CCC(c2nc(C3=NOC(c4ccccc4OS(=O)(=O)C(F)(F)F)C3)cs2)CC1` (stereo not shown) [I-115], the figures for the Eff. % in the series with Phytophthora infestans and with Plasmopara viticola were 88% and 100%, respectively. Moreover, in series [1], the “logp [a]” value was 3.92[a],. Further, in series [1], the “logp [b]” value was 3.92[b].
For `C=CC(=O)Oc1ccccc1C1CC(c2csc(C3CCN(C(=O)Cn4nc(C(F)F)cc4C(F)F)CC3)n2)=NO1` (stereo not shown) [I-116], the results for the Eff. % with Phytophthora infestans and in the series on Plasmopara viticola were 98% and 100%, respectively. In addition, the “logp [a]” value in series [1] is 3.21[a],. Besides, the “logp [b]” value in series [1] is 3.15[b].
On to `C#CCN(C=O)c1ccccc1C1CC(c2csc(C3CCN(C(=O)Cn4nc(C(F)F)cc4C(F)F)CC3)n2)=NO1` (stereo not shown) [I-117], for which the Eff. % in the series on Phytophthora infestans is reported as 79%; in the series on Plasmopara viticola it was 96%. The “logp [a]” value in series [1] is 2.65[a],. The “logp [b]” value in series [1] was 2.67[b].
Turning to `CCS(=O)(=O)Oc1ccccc1C1CC(c2csc(C3CCN(C(=O)Cn4nc(C(F)(F)F)cc4C)CC3)n2)=NO1` (stereo not shown) [I-119], the Eff. % in the series with Phytophthora infestans is given as 89%. In the series on Plasmopara viticola, the Eff. % is 100%. Besides, in series [1], the “logp [a]” value is 3.19[a], and the “logp [b]” value was 3.21[b].
Turning to `CSCOc1ccccc1C1CC(c2csc(C3CCN(C(=O)Cn4nc(C(F)(F)F)cc4C)CC3)n2)=NO1` (stereo not shown) [I-120], the Eff. % with Phytophthora infestans is recorded as 89%. Also, the Eff. % in the series on Plasmopara viticola amounted to 95%. For the same molecule, in series [1], the “logp [a]” value was 3.59[a], and the “logp [b]” value is 3.59[b].
The matching figures for `N#CCN(C=O)c1ccccc1C1CC(c2csc(C3CCN(C(=O)Cn4nc(C(F)F)cc4C(F)F)CC3)n2)=NO1` (stereo not shown) [I-121]: 100%, 98%, 2.62[a], and 2.55[b].
Consider `O=CNc1ccccc1C1CC(c2csc(C3CCN(C(=O)Nc4cc(C(F)F)ccc4C(F)F)CC3)n2)=NO1` (stereo not shown) [I-122], for which the Eff. % in the series with Phytophthora infestans is listed as 97%. The Eff. % in the series on Plasmopara viticola stood at 89%. In series [1], the “logp [a]” value is 2.63[a], and the “logp [b]” value is 2.54[b].
Consider `O=CNc1ccccc1C1CC(c2csc(C3CCN(C(=O)Cc4cc(C(F)F)ccc4C(F)F)CC3)n2)=NO1` (stereo not shown) [I-123], for which the Eff. % in the series with Phytophthora infestans stood at 100%. Also, the Eff. % with Plasmopara viticola was determined as 73%. In addition, in series [1], the “logp [a]” value is 2.74[a], and the “logp [b]” value was 2.64[b].
In the case of `Cc1cc(C(F)(F)F)nn1CC(=O)N1CCC(c2nc(C3=NOC(c4ccccc4OS(=O)(=O)C(F)(F)F)C3)cs2)CC1` (stereo not shown) [I-125], the Eff. % in the series with Phytophthora infestans amounted to 89%. Also, in the series on Plasmopara viticola, the Eff. % is given as 100%. Further, in series [1], the “logp [a]” value was 3.99[a], and the “logp [b]” value is 4[b].
With `CN(C)C(=S)c1ccccc1C1CC(c2csc(C3CCN(C(=O)Cn4nc(C(F)F)cc4C(F)F)CC3)n2)=NO1` (stereo not shown) [I-127], the values for the Eff. % in the series with Phytophthora infestans and in the series with Plasmopara viticola were 97% and 96%, respectively. Also, in series [1], the “logp [a]” value is 3.11[a],. In series [1], the “logp [b]” value is 3.06[b].
In the series with Phytophthora infestans, `COC(=O)COc1ccc(C2CC(c3csc(C4CCN(C(=O)Cn5nc(C(F)F)cc5C(F)F)CC4)n3)=NO2)cc1` (stereo not shown) [I-128] had an Eff. % of 90%. Besides, the Eff. % in the series on Plasmopara viticola is listed as 93%. Also, in series [1], the “logp [a]” value was 2.89[a], and the “logp [b]” value was 2.87[b].
In the case of `O=C(Oc1ccccc1C1CC(c2csc(C3CCN(C(=O)Cn4nc(C(F)F)cc4C(F)F)CC3)n2)=NO1)c1cccc(F)c1` (stereo not shown) [I-129], the Eff. % in the series with Phytophthora infestans and in the series with Plasmopara viticola was 98% each time. Besides, the “logp [a]” value in series [1] is 3.76[a],. Also, the “logp [b]” value in series [1] is 3.7[b].
For `O=C(Oc1ccccc1C1CC(c2csc(C3CCN(C(=O)Cn4nc(C(F)F)cc4C(F)F)CC3)n2)=NO1)c1ccccc1F` (stereo not shown) [I-130], the Eff. % in the series with Phytophthora infestans and in the series on Plasmopara viticola was 100% in each case. The “logp [a]” value in series [1] is 3.61[a],. For the same molecule, in series [1], the “logp [b]” value was 3.58[b].
Consider `O=C(Oc1ccccc1C1CC(c2csc(C3CCN(C(=O)Cn4nc(C(F)F)cc4C(F)F)CC3)n2)=NO1)c1ccccc1` (stereo not shown) [I-131], for which, in the series with Phytophthora infestans, the Eff. % was found to be 100%. For the same molecule, the Eff. % with Plasmopara viticola was found to be 94%. For the same molecule, in series [1], the “logp [a]” value was 3.69[a], and the “logp [b]” value is 3.65[b].
The matching figures for `O=C(Oc1ccccc1C1CC(c2csc(C3CCN(C(=O)Cn4nc(C(F)F)cc4C(F)F)CC3)n2)=NO1)c1ccc(F)cc1` (stereo not shown) [I-132]: 100%, 96%, 3.73[a], and 3.7[b].
Take `C[Si](C)(C)C#Cc1ccccc1C1CC(c2csc(C3CCN(C(=O)Cn4nc(C(F)F)cc4C(F)F)CC3)n2)=NO1` (stereo not shown) [I-133]: the Eff. % in the series with Phytophthora infestans is 100%. In the series with Plasmopara viticola, this molecule showed an Eff. % of 85%. In series [1], the “logp [a]” value was 4.78[a], and the “logp [b]” value was 4.79[b].
